Values of other authors in patent US20050232957A1, “Compositions and methods for moisturizing skin” (priority 2004, published 2005).

Settings: person, one month after starting treatment

CS(=O)(=O)c1ccc(C2=C(c3ccccc3)C(=O)OC2)cc1 [rofecoxib]
aquagenic wrinkling of the palms (AWP): developed AWP
